Assay results from patent publication US8227508B2, “Dietary and pharmaceutical compositions containing carnosol and/or rosmanol and their uses” (DSM IP Assets B.V., priority 2006, dated 2012).

Tests used:
mouse [1] = assay: Four Plates Test; type: in vivo; conditions: 32 mg/kg p.o. −1 h (vehicle at −24 h and −5 h)
Description: The method, which detects anxiolytic activity, follows that described by Aron et al (1971, Neuropharmacology, 10:459-469). Anxiolytics (benzodiazepines) increase the number of punished crossings. Animals were placed individually in a white plastic enclosure containing a floor consisting of 4 metal plates connected to an electric shock generator (Apelex: type 011346). Each mouse was left to explore freely for 15 seconds. Then, every time it crossed from one plate to another, it received a weak electric shock (2.5 mA, 1.5 s). The number of punished crossings was counted during a 1 minute test. 15 mice were studied per group. The test was performed blind.
Carnosol was evaluated at 3 doses (200, 400, 600 mg/kg), administered p.o. 24 h, 5 h and 1 h before the test, and compared with a vehicle control (corn oil) group.
Clobazam (32 mg/kg p.o.), administered 1 h before the test, was used as reference substance. Mice in this group received additional administrations of vehicle at 24 h and 5 h before the test in order to maintain experimental blinding.

mouse [2] = assay: Marble burying test; type: in vivo; conditions: 32 mg/kg i.p., −30 min
Description: The method applied here follows that described by Broekkamp et al. (1986). Mice (n=15 per treatment group) were individually placed in transparent plastic cages (33×21×18 cm) with 5 cm of sawdust on the floor and 25 marbles (diameter 1 cm) grouped in the centre of the cage. A second, up-turned, cage served as a lid. The number of marbles covered by sawdust (by at least two-thirds) was counted at the end of the 30-min test period. Tests were performed by investigators blind to the drug treatment protocol.
Prior to testing, all test cages and marbles were “impregnated” by leaving 10 naive mice in each cage for 15 minutes.
Carnosol (3, 10 and 30 mg/kg) and rosmanol (10, 30 and 100 mg/kg) were administered i.p. 30 min before the test, and compared with a vehicle control group. Fluoxetine (32 mg/kg), administered under the same experimental conditions, was used as a reference substance.

[3] = target: T1, human glycine transporter 1b (GlyT1) (Homo sapiens, UniProt P48067); assay: Glycine uptake inhibition in CHO cells expressing GlyT1; type: cell-based; conditions: 60 nM [3H]-glycine, read-out: IC50 for tritiated glycine uptake
T1 construct: expressed in transfected cells; host or cells: CHO
T1 sequence (P48067 1-652 isoform P48067-3): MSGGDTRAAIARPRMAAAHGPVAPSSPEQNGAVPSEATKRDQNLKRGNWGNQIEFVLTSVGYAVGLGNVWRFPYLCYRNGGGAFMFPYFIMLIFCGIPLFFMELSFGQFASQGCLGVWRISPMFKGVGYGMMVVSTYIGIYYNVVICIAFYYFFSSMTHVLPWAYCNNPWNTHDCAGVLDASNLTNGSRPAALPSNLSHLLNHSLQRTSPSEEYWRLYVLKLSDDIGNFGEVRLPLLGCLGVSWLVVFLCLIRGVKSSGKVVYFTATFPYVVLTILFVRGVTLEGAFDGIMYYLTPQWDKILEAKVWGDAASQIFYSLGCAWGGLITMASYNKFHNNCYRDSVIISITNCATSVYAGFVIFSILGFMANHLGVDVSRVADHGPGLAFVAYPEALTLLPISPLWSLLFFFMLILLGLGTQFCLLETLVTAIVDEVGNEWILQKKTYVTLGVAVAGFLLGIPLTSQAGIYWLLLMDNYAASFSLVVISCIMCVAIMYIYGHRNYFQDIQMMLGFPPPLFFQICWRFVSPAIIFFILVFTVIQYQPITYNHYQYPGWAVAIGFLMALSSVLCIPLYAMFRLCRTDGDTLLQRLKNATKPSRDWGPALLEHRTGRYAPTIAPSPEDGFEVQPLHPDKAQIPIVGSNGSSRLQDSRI
Description: CHO cells stably expressing the human glycine transporter 1b cDNA (GlyT1) were routinely grown in Dulbecco's Modified Eagle's Medium (Invitrogen, Carlsbad, USA) containing 10% dialysed foetal calf serum, penicillin, streptomycin, proline and the antibiotic G418. Cells were harvested by trypsinisation one day prior to the assay and were seeded in the above mentioned medium. Immediately prior to the assay, the medium was replaced by uptake buffer containing 150 mM NaCl, 1 mM CaCl2, 2.5 mM KCl, 2.5 mM MgCl2, 10 mM Glucose and 10 mM N-2-hydroxyethylpiperazine-N′-2-ethanesulfonic acid (HEPES buffer).
Glycine uptake into the cells was determined by addition of 60 nM radiolabelled [^3H]-glycine (Amersham Biosciences GE Healthcare, Slough, UK) and incubation for 30 minutes at room temperature. Following removal of unincorporated label by gentle washing three times with the above buffer, incorporated glycine was quantified by liquid scintillation counting.

mouse [4] = assay: Porsolt's Forced Swim Test (FST); type: in vivo
Description: The Forced Swim Test (FST) was first reported in 1977 for screening of antidepressant-like compounds in rats (Porsolt et al 1977 Nature, 266:730-732) and, later, modified for testing mice (Porsolt et al 1977 Arch. Int. Pharmacodynamie, 229:327-336).
In two separate experiments, mice were tested following either i.p. or p.o. administration of carnosol. Mice were individually placed in a cylinder containing water (22° C.) from which they could not escape. The mice were placed in the water for 6 min and the duration of immobility during the last 4 min was measured. Ten to fifteen mice were studied per group. Carnosol was evaluated at 3, 10, 30 mg/kg body weight (i.p. 30 min before the test) or 200, 400, 600 mg/kg body weight (p.o., 24, 5 and 1 h before the test), and compared with vehicle control groups. Imipramine (32 mg/kg i.p., or p.o., respectively), administered under the same experimental conditions, was used as reference substance. Immobility and swimming time were assessed.

For `CN1C(=O)CC(=O)N(c2ccccc2)c2cc(Cl)ccc21` [Clobazam, reference compound], the “Number of punished crossings, % change from control” value (mouse [1]) was “+118%” and the “Number of punished crossings, mean” value (mouse [1]) was 6.1.

With `CNCCC(Oc1ccc(C(F)(F)F)cc1)c1ccccc1` (stereo not drawn) [Fluoxetine, fluoxetine, reference compound] the “Number of marbles buried (% change from control)” value (mouse [2]) was −92%.

With `CN(CC[C@@H](Oc1ccc(C(F)(F)F)cc1)c1ccccc1)CC(=O)O` [ORG24598, reference compound] the IC50 [3] was 20 nM.

For `CN(C)CCCN1c2ccccc2CCc2ccccc21` [imipramine, reference compound], the “Duration of immobility (% change from control)” value (mouse [4]; 32 mg/kg i.p., −30 min) was −80% and the “Duration of immobility (% change from control)” value (mouse [4]; 32 mg/kg p.o., −24, −5, −1 h) was −48%.
